# Peptide text beside a SMILES is read from it.
# Legend:
# T. gondii tachyzoites [1] = assay: Trypan blue staining (exclusion) assay, killing of tachyzoites; assay type: cell-based, Toxoplasma gondii; details: 10 μM peptide, 2 h incubation with T. gondii, optical microscope, Fig. 2A
# Procedure: When T. gondii died, trypan blue was able to cross its cell membrane and enter the interior, making it blue. Trypan blue exclusion test was undertaken as mentioned before. Firstly, 10 μM different XYP1-derived peptides were prepared, incubated with T. gondii for 2 h, and then the trypan blue dye was added. After 3–5 min, the survival rate of T. gondii was observed by optical microscope and the mortality rate was calculated.
# [2] = test system: tachyzoites of RH-GFP-TgAtg8 T. gondii strain; assay: Fluorescence microscopy killing assay with RH-GFP-TgAtg8 tachyzoites; assay type: cell-based, Toxoplasma gondii; details: for fluorescence area and intensity of RH-GFP-TgAtg8 tachyzoites vs control: 10 μM peptide, 2 h incubation, fluorescence microscopy, Fig. 2C, D; for concentration dependence of killing effect (fluorescence area and intensity): 5 μM, 10 μM, 20 μM, room temperature, 2 h, Fig. 3A, B
# Procedure: To explore the concentration dependence of the polypeptides against T. gondii, XYP1-derived peptide solutions with different concentration gradients (5 μM, 10 μM, 20 μM) were prepared and then mixed with T. gondii tachyzoites at room temperature. After incubation for 2 h, the anti-T. gondii effect was observed by fluorescence microscopy.
# CCK-8 cytotoxicity assay = assay type: cell-based; details: human; CCK-8, HFFs, 24 h with peptide then 2 h with CCK-8, OD540; Fig. 3C
# Procedure: […] After 24 h, 10 μL CCK-8 solution (APExBIO, USA) was added and incubated for another 2 h. The OD540 value was then measured and the cell mortality was calculated.
# [3] = test system: T. gondii RH strain tachyzoites; assay: Mouse survival assay after T. gondii RH infection; assay type: in vivo; details: mice i.p. 1000 RH strain tachyzoites; for effect on survival time of infected mice (in words): peptide after 4 h, 4 mg/kg, Fig. 3E; for survival of infected mice prolonged to: peptide injected after 4 h, 4 mg/kg (legend; method says 4 mg/mL), control group all died at 127.1 h
# Procedure: The anti-T. gondii effect of peptides in vivo was investigated through a mouse survival experiment. The experiment was divided into a PBS control group and different polypeptide groups. Each group of mice was intraperitoneally injected with 1000 RH strain tachyzoites. After 4 h, the pre-prepared 4 mg/mL peptides were injected into the mice. The survival time of mice in each group was recorded and analyzed statistically.
# T. gondii tachyzoites [4] = assay: Transmission electron microscopy of tachyzoite internal structure; assay type: cell-based, Toxoplasma gondii; details: 10 μM peptide, 2 h; Fig. 5
# Procedure: TEM steps mainly include fixing, rinsing, dehydration, infiltration, embedding, etc. After the T. gondii samples were fixed in 4% glutaraldehyde, they were washed with a cacodylate buffer, and 1% osmium tetroxide was used to fix the sample at 4 ℃ for 2 h. The fixed samples were then washed and subjected to a series of gradient dewatering treatments before being embedded in epoxy resin and polymerized at 60 ℃. After polymerization, the sample was sliced and double stained. Finally, the internal structure of T. gondii tachyzoites treated with different polypeptides was observed by TEM (Tecnai G2 Spirit TWIN, USA).
# human red blood cells = assay: Hemolysis assay; assay type: cell-based; details: 1% human red blood cells in PBS, 37 ℃, 30 min, OD540
# Procedure: The hemolytic activity of peptides was determined by the amount of hemoglobin released from lysed human red blood cells. Normal human blood was mixed 1:1 with Aldrin’s fluid, followed by centrifuging, and phosphate buffered saline (PBS) was added to make 1% red blood cell resuspension. The 50 μL resuspension was mixed with 50 μL PBS, 1% Triton X-100, 70% DMSO (Sigma, USA), and different concentrations of polypeptides, then incubated at 37 ℃ for 30 min. After centrifugation, the OD540 value of the supernatant was measured by Microplate reader (Agilent, USA) and the hemolysis rate was calculated.
# IL-17 = assay: qRT-PCR of IL-17 transcription; assay type: cell-based, human; details: qPCR, XYP1 treatment group vs control; Fig. 7F
# Procedure: (§1) The control group consisted of HFF cells infected with T. gondii without XYP1, and the experimental group was treated with XYP1 for 8 h. Total RNAs were extracted from the control and experimental groups and reverse to cDNA, with three replicates per group. After the steps of end repair, A-tailing, and adapter ligation, the samples were proceeded with polymerase chain reaction (PCR) amplification and Illumina transcriptome sequencing in the OE biotech Co., Ltd. (Shanghai, China). Trimmomatic software was used to filter the raw data to obtain high-quality data information. Subsequently, the filtered data was aligned and assembled using HISAT2 [30] and StringTie tool. The number of reads mapped to each gene in each sample was calculated.
# (§2) The total RNAs from different samples were extracted using the classical Trizol method. The PerfectStart Uni RT&qPCR Kit (TransGen Biotech, China) was used to efficiently reverse transcribe RNA into cDNA and synthesize the first strand. The qRT-PCR reaction system contains cDNA temple, forward and reverse primers, double stranded DNA fluorescent dye (SYBR Green I), DNA polymerase, dNTP and buffer. The PCR reaction was performed using a two-step amplification procedure: 94 ℃ for 30 s (pre-denaturation) followed by 40 cycles of 94 ℃ for 5 s and 60 ℃ for 30 s. Finally, the relative expression of each gene was calculated by 2^−∆∆Cq method.
# TP53 = assay: qRT-PCR of TP53 transcription; assay type: cell-based, human; details: qPCR, XYP1 treatment group vs control; Fig. 7G
# Procedure: as §1, §2
# NF-kB = assay: qRT-PCR of NF-kB transcription; assay type: cell-based, human; details: qPCR, XYP1 treatment group vs control; Fig. 7H
# Procedure: as §1, §2
# T. gondii tachyzoites [5] = details: 10 μM XYP1; previous study; cited from earlier work
# Procedure: Therefore, trypan blue staining assay was used to compare the killing activity in vitro of 10 μM different derived peptides and XYP1.
SMILES,"anti-T. gondii killing activity (toxoplasma mortality, trypan blue) (T. gondii tachyzoites [1])",fluorescence area and intensity of RH-GFP-TgAtg8 tachyzoites vs control [2],IC50 at 24 h (CCK-8 cytotoxicity assay),effect on survival time of infected mice (in words) [3],survival of infected mice prolonged to [3],damage of internal structure of tachyzoites (TEM) (T. gondii tachyzoites [4]),concentration dependence of killing effect (fluorescence area and intensity) [2],hemolysis at 1.25 μM to 80 μM (human red blood cells; 1.25 μM to 80 μM),hemolysis at the highest concentration (160 μM) (human red blood cells; 160 μM),hemolysis at 1.25 μM to 10 μM (human red blood cells; 1.25 μM to 10 μM),transcription level of IL-17 (IL-17),transcription level of TP53 (TP53),transcription level of NF-kB (NF-kB),killing of T. gondii tachyzoites (T. gondii tachyzoites [5])
CC[C@H](C)[C@H](NC(=O)[C@H](CCCCN)NC(=O)[C@H](CCCCN)NC(=O)[C@H](C)NC(=O)[C@@H](NC(=O)[C@H](CCCCN)NC(=O)[C@H](CCCCN)NC(=O)[C@H](CCSC)NC(=O)[C@H](CCCCN)NC(=O)[C@H](CCCCN)NC(=O)[C@H](Cc1ccccc1)NC(=O)[C@H](Cc1c[nH]c2ccccc12)NC(=O)[C@H](CCCCN)NC(=O)[C@H](CCCCN)NC(=O)[C@@H](N)CC(C)C)[C@@H](C)CC)C(=O)N[C@@H](C)C(=O)N[C@@H](CCCCN)C(=O)N[C@@H](CC(C)C)C(=O)O [XYP1-18-1] (H-LKKWFKKMKKIAKKIAKL-OH; N-terminus and C-terminus assumed),good anti-T. gondii activity,significantly reduced compared with the control group,45.6 µM,poor effect on prolonging the survival time of mice,145 h,"shrinkage and vacuolization, but also complete dissolution of the tachyzoites observed",,,,,,,,
CC[C@H](C)[C@H](NC(=O)[C@H](Cc1ccccc1)NC(=O)[C@H](CCCCN)NC(=O)[C@H](C)NC(=O)[C@@H](NC(=O)[C@H](CO)NC(=O)[C@H](CCCCN)NC(=O)[C@H](CCSC)NC(=O)[C@H](C)NC(=O)[C@H](CCCCN)NC(=O)[C@H](Cc1ccccc1)NC(=O)[C@H](Cc1c[nH]c2ccccc12)NC(=O)[C@H](CCCCN)NC(=O)[C@@H](NC(=O)[C@@H](N)CCCCN)[C@@H](C)CC)[C@@H](C)CC)C(=O)N[C@@H](C)C(=O)N[C@@H](CCCCN)C(=O)N[C@@H](CC(=O)O)C(=O)O [XYP1-18] (H-KIKWFKAMKSIAKFIAKD-OH; N-terminus and C-terminus assumed),comparable to XYP1,significantly reduced compared with the control group,80.6 µM,no significant difference between XYP1-18 and XYP1,191 h,"severe deformation and rupture of the surface membrane, but also serious shrinkage and vacuolization internally",statistically different,almost no hemolysis,only minor hemolysis,,,,,
CC[C@H](C)[C@H](NC(=O)[C@H](Cc1ccccc1)NC(=O)[C@H](CCCCN)NC(=O)[C@H](C)NC(=O)[C@@H](NC(=O)[C@H](CO)NC(=O)[C@H](CCCCN)NC(=O)[C@H](CCSC)NC(=O)[C@H](C)NC(=O)[C@H](CCCCN)NC(=O)[C@H](Cc1ccccc1)NC(=O)[C@H](Cc1c[nH]c2ccccc12)NC(=O)[C@H](CCCCN)NC(=O)[C@@H](NC(=O)[C@@H](N)CCCCN)[C@@H](C)CC)[C@@H](C)CC)C(=O)N[C@@H](C)C(=O)N[C@@H](CCCCN)C(=O)N[C@@H](CC(=O)O)C(=O)N[C@@H](CCC(N)=O)C(=O)N[C@@H](CC(C)C)C(=O)N[C@@H](CCCCN)C(=O)N[C@@H](CCCCN)C(=O)N[C@@H](Cc1c[nH]cn1)C(=O)N[C@@H](CC(C)C)C(=O)O [XYP1] (H-KIKWFKAMKSIAKFIAKDQLKKHL-OH; N-terminus and C-terminus assumed),consistent with the previous findings,,33.6 µM,,208.5 h,"ruptures in the surface membrane, but also different degrees of vacuolization internally",statistically different,,,almost no hemolysis reaction was observed,down-regulated,down-regulated,up-regulated,can kill T. gondii tachyzoites

# Reference: publication PMC11373213, “Anti-Toxoplasma gondii effects of XYP1-derived peptides and regulatory mechanisms of XYP1” (Parasites & Vectors, 2024)
